As usually defined, the inhibition is the share of the control response that was lost under treatment.

Molecules are shown by their SMILES.

The values below come from US8030336B2, “Nicotinamide-based kinase inhibitors” (YM Biosciences Australia Pty Ltd, priority 2002, dated 2011).

Type in all cases: biochemical
One assay concerns the target T1, abl (Homo sapiens, UniProt P00519).
T1 sequence (P00519 242-493 limits assumed): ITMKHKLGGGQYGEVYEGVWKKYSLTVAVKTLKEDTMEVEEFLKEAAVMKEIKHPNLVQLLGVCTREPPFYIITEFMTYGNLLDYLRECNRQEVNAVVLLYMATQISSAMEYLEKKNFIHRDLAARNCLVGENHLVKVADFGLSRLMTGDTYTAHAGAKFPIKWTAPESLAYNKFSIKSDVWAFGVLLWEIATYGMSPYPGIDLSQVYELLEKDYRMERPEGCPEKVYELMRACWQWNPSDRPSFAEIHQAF
As to the kind of experiment: abl kinase assay (ELISA or Alphascreen). The conditions noted are these: read-out: abl inhibition of enzyme activity. The method, then: (§1) Kinase assays were performed in a 96 well capture-based ELISA assay or in 384 well Optiplates (Packard) using an Alphascreen Protein Tyrosine Kinase kit. In either case using approximately 1.5 μg of affinity purified PTK domain in the presence of 50 mM HEPES, pH 7.5, 10 mM MgCl2, 150 mM NaCl and 10 μM-1 mM ATP. The biotinylated substrate biotin-EGPWLEEEEEAYGWMDF-NH2 (SEQ ID NO:9) (final concentration 5 μM) was used as substrate. In the ELISA assay tyrosine phosphorylation was quantitated following transfer to an avidin coated ELISA plate using peroxidase-linked anti-phosphotyrosine antibody PY20. In the Alphascreen assay, Alphascreen phosphotyrosine acceptor beads followed by streptavidin donor beads were added under subdued light. The ELISA plates were read on a BMG Fluorostar, the Alphascreen plates were read on a Packard Fusion Alpha. Inhibitors were added to the assays fifteen minutes prior to the addition of ATP. Inhibitors were added in aqueous […] concentrations never exceeding 1%.
(ELISA stands for enzyme-linked immunosorbent assay.)

For another assay, the target named is T2, fms (Homo sapiens, UniProt P07333).
T2 sequence (P07333 582-910 limits assumed): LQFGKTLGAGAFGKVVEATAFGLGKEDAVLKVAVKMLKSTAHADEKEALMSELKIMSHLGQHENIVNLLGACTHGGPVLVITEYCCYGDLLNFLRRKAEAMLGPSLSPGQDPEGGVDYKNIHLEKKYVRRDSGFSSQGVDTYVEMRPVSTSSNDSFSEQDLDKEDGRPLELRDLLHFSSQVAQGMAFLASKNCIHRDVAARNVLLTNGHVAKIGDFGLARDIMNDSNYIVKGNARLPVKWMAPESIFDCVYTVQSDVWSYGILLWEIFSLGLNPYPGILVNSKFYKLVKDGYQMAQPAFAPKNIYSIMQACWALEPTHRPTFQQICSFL
As to the kind of experiment: fms kinase assay (ELISA or Alphascreen). The conditions noted are these: read-out: fms inhibition of enzyme activity. On the procedure:
as §1

The target in the next assay is fes (Homo sapiens, UniProt P07332). As to the kind of experiment: fes kinase assay (ELISA or Alphascreen). Conditions: read-out: fes inhibition of enzyme activity. The method, then: as §1
fes, sequence (P07332 561-822 limits assumed, species assumed): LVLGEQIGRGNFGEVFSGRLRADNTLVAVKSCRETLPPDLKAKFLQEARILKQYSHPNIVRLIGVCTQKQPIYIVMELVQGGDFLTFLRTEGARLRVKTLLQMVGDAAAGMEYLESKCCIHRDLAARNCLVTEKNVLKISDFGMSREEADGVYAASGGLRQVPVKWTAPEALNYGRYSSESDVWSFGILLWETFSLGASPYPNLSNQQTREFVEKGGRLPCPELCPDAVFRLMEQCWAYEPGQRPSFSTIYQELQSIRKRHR
The target in a further assay is T3, human JAK2 (Homo sapiens, UniProt O60674).
T3 construct: The kinase domain of human JAK2 was amplified from U937mRNA; His tag (from the pFastBac HTc vector) (N); made in house; host or cells: baculovirus; Sf9 for virus, High Five insect cells for production
T3 sequence (O60674 849-1124 limits assumed): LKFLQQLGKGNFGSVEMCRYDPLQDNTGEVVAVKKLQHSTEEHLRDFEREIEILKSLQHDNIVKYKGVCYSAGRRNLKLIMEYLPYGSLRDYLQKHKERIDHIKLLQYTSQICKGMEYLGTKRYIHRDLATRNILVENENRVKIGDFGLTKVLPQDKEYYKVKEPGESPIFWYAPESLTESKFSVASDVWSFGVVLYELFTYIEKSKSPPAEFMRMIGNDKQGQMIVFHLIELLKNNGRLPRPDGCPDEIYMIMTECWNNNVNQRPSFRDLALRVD
As to the kind of experiment: JAK2 kinase assay (ELISA or Alphascreen). The conditions noted are these: read-out: Jak2 inhibition of enzyme activity.
Source text: The kinase domain of human JAK2 was amplified from U937mRNA using the polymerase chain reaction with the following primers: […]
JAK2 PCR products were doped into the pFastBac HTc expression vector (Gibco) via the Sal I and Not I sites. The JAK2 plasmid was than transformed into competent DH10Bac cells (Gibco), and the recombinant baculovirus produced prepared for transfection into Sf9 insect cells.
(§2) Baculovirus preparations from each of the JAK family members were infected into five liters of High Five cells (Invitrogen) grown in High Five serum free medium (Invitrogen) to a cell density of approximately 1-2×10^6 cells/ml. Cells are infected with virus at a MOI of 0.8-3.0. Cells were harvested and lysed. JAK kinase domains were purified by affinity chromatography on a Probond (Invitrogen) nickel chelate affinity column.
as §1

Another assay deals with T4, Zap70 (Homo sapiens, UniProt P43403).
T4 sequence (P43403 338-600 limits assumed): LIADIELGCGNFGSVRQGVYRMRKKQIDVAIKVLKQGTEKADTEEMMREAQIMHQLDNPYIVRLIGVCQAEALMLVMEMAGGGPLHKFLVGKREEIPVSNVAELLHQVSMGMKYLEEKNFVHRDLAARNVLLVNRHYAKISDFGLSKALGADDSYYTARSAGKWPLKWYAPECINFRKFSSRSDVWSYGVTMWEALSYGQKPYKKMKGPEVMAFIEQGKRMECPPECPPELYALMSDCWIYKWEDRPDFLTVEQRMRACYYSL
As to the kind of experiment: Zap70 kinase assay (ELISA or Alphascreen). Conditions: read-out: Zap70 inhibition of enzyme activity. On the procedure: as §1

A further assay addresses T5, human JAK3 (Homo sapiens, UniProt P52333).
T5 construct: The kinase domain of human JAK3 was amplified from U937mRNA; His tag (from the pFastBac HTb vector) (N); made in house; host or cells: baculovirus; Sf9 for virus, High Five insect cells for production
As to the kind of experiment: JAK3 kinase assay (ELISA or Alphascreen). Conditions: read-out: Jak3 inhibition of enzyme activity.
Source text: The kinase domain of human JAK3 was amplified from U937mRNA using the polymerase chain reaction with the following primers: […]
JAK3 PCR products were cloned into the pFastBac HTb expression vector (Gibco) via the Xho I and Kpn I sites. The JAK3 plasmid was then transformed into competent DH10Bac cells (Gibco), and the recombinant baculovirus produced prepared for transfection into Sf9 insect cells.
as §2, §1

T5 sequence (P52333 822-1111 limits assumed): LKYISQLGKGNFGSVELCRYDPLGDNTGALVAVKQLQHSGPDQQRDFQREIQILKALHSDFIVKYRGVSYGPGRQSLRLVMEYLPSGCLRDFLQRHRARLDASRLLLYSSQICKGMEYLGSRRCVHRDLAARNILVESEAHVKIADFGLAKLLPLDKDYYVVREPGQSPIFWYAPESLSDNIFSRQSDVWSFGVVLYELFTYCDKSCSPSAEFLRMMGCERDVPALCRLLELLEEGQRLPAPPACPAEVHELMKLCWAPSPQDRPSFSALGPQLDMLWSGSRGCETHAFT

As to `Cc1cc(-c2cncc(C(=O)N[C@@H](C)c3ccccc3)c2)cc(C)c1O`, the inhibition at 10 µM on abl, at fms, on fes, at human JAK2 and on Zap70 was below 50% throughout.

For the compound `COc1ccc(NC(=O)c2cncc(-c3cc(C)c(O)c(C)c3)c2)c(OC)c1`, the inhibition at 10 µM at abl, at human JAK3, at fes, on human JAK2 and on Zap70 was below 50% in each case.

`COc1cc(-c2cncc(C(=O)NC(CO)C(C)C)c2)c(Cl)c(OC)c1OC` (stereo not shown): the inhibition at 10 µM at abl, on human JAK3, on fms, on human JAK2 and on Zap70 was below 50% throughout.

For `COc1cc(-c2cncc(C(=O)NCc3ccc(C)cc3)c2)c(Cl)c(OC)c1OC`, the inhibition at 10 µM at abl, at human JAK3, at fes, at human JAK2 and on Zap70 was below 50% throughout.

As to `COc1ccc(NC(=O)c2cncc(-c3cc(OC)c(OC)c(OC)c3Cl)c2)c(OC)c1`, the inhibition at 10 µM at abl, on human JAK3, at fms, on fes, on human JAK2 and at Zap70 was below 50% each time.

On to `O=C(NCc1ccc(Cl)c(Cl)c1)c1cncc(-c2ccc3c(c2)OCO3)c1`, for which the inhibition at 10 µM on human JAK3, at fms, on fes, on human JAK2 and at Zap70 was below 50% in each case.

Regarding `O=C(Nc1ccccc1)c1cncc(-c2ccc3c(c2)OCO3)c1`, the inhibition at 10 µM on abl, on human JAK3, on fms, at fes, on human JAK2 and on Zap70 was below 50% throughout.

In the case of `Cc1ccc(C)c(NC(=O)c2cncc(-c3ccc4c(c3)OCO4)c2)c1`, the inhibition at 10 µM on abl, at human JAK3, at fms, on fes, at human JAK2 and on Zap70 was below 50% in each case.

For `O=C(NCCO)c1cncc(-c2cccs2)c1`, the inhibition at 10 µM at abl, at human JAK3, at fms, on fes, at human JAK2 and on Zap70 was below 50% throughout.

With `Cc1ccc(C)c(NC(=O)c2cncc(-c3cccs3)c2)c1`, the inhibition at 10 µM at abl was below 50%; at human JAK3 it was below 50%; on fms, below 50%; at fes, at least 50%; at human JAK2, below 50%; at Zap70 it was below 50%.

As to `Cc1cc(F)ccc1NC(=O)c1cncc(-c2cccs2)c1`, the inhibition at 10 µM on abl, on human JAK3, at fms, at fes and at Zap70 was below 50% throughout.

As to `Cc1ccccc1NC(=O)c1cncc(-c2cccnc2)c1`, the inhibition at 10 µM on abl, on human JAK3, at fms, at fes, at human JAK2 and at Zap70 was below 50% in each case.

Consider `CN1CCN(c2ccc(CNC(=O)c3cncc(-c4ccc(F)cc4)c3)cc2)CC1`, for which the inhibition at 10 µM on human JAK3, on fms, on fes, at human JAK2 and on Zap70 was below 50% each time.

With `O=C(NCc1ccc(F)cc1)c1cncc(-c2ccc(F)cc2)c1`, the inhibition at 10 µM on abl is below 50%; on human JAK3, below 50%; on fms it was below 50%; on fes, below 50%; at human JAK2, at least 50%; at Zap70 it was below 50%.

Turning to `O=C(NCc1ccncc1)c1cncc(-c2ccc(F)cc2)c1`, the inhibition at 10 µM on abl, at human JAK3, at fms, at fes, on human JAK2 and at Zap70 was below 50% in each case.

On to `CN1CCN(c2ccc(NC(=O)c3cncc(-c4ccc(F)cc4)c3)cc2)CC1`, for which the inhibition at 10 µM at abl, on human JAK3, on fms, on human JAK2 and on Zap70 was below 50% each time.

On to `O=C(NCCCn1ccnc1)c1cncc(-c2ccc(F)cc2)c1`, for which the inhibition at 10 µM at human JAK3, on fms, at fes, at human JAK2 and at Zap70 was below 50% throughout.

Consider `Cc1ccccc1NC(=O)c1cncc(-c2ccc(F)cc2)c1`, for which the inhibition at 10 µM on abl, on human JAK3, at fes, on human JAK2 and on Zap70 was below 50% throughout.

Take `C[C@H](NC(=O)c1cncc(-c2cccnc2)c1)c1ccccc1`: the inhibition at 10 µM on human JAK3, on fms, on fes, at human JAK2 and at Zap70 was below 50% throughout.

Turning to `O=C(NCc1ccco1)c1cncc(-c2cccnc2)c1`, the inhibition at 10 µM on human JAK3, on fms, on fes, at human JAK2 and on Zap70 was below 50% each time.

With `C[C@@H](NC(=O)c1cncc(-c2ccc(F)cc2)c1)c1ccccc1`, the inhibition at 10 µM on human JAK3, at fms, on fes, at human JAK2 and at Zap70 was below 50% each time.

`COc1cccc(-c2cncc(C(=O)Nc3cc(F)ccc3C)c2)c1`: the inhibition at 10 µM on abl was below 50%; at human JAK3, below 50%; at fes, below 50%; on human JAK2, below 50%; at Zap70, at least 50%.
